# Target: T1, human PAD4 (Homo sapiens, UniProt Q9UM07)
# T1 construct: human PAD4 (NM_012387), A2-P663, was PCR amplified; His-SUMO (N, cleaved yes); made in house; host or cells: E. coli BL21(DE3)
# Assay: In vitro PAD4 BAEE biochemical assay
# Conditions: BAEE substrate 3 mM, 5 nM PAD4, 2 mM calcium chloride; geometric mean of multiple experiments
# In short: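 Ammonia produced by BAEE deimination (3 mM substrate, 2 h, 25 °C) was read as fluorescent isoindole after o-phthalaldehyde/DTT derivatization, ex 405 nm/em 535 nm. Human PAD4 at 5 nM final, 2 mM calcium, pH 7.6 MOPS; compound preincubated 30 min. IC50s, normalized to BB-Cl-Amidine and DMSO controls, were geometric-mean averaged.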
# T1 sequence (Q9UM07 2-663): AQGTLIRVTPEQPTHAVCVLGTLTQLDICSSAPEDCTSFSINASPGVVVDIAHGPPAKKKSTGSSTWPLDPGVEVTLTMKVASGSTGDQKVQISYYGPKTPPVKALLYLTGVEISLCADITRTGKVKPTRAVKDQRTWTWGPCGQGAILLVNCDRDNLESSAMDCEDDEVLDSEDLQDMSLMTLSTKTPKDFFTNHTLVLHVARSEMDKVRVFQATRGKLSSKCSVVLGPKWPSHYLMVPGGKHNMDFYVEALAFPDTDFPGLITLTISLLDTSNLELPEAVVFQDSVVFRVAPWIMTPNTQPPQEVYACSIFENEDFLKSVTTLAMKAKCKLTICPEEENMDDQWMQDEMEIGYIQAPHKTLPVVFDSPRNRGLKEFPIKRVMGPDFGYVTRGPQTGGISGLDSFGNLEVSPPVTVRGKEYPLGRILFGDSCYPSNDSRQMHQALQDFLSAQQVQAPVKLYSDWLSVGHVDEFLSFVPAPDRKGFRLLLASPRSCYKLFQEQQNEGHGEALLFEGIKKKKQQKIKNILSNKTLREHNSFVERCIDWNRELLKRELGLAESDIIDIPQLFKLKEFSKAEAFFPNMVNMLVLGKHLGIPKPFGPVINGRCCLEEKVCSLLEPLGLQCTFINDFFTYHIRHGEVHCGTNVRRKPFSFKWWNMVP
row,SMILES,IC50 [nM]
1,"COc1cc(C(=O)N2CC[C@@H](OC(F)(F)F)[C@@H](N)C2)cc2nc(-c3cc4ccc5nc4n3CCCCC[C@@H]3C[C@H]3C(=O)N[C@@H]5C)n(C)c12 [Example 582, (2~{R},5~{R},7~{R})-14-[5-[(3~{S},4~{R})-3-amino-4-(trifluoromethoxy)piperidine-1-carbonyl]-7-methoxy-1-methyl-benzimidazol-2-yl]-2-methyl-3,13,19-triazatetracyclo[11.5.2.0^ {5,7}.0^{16,20}]icosa-1(19), 14,16(20),17-tetraen-4-one]",271
2,"COc1cc(C(=O)N2CC[C@@H](OC)[C@@H](N)C2)cc2nc(-c3cc4ccc5nc4n3CCCCC[C@@H]3C[C@@]3(C)C(=O)N[C@@H]5C)n(C)c12 [Example 583, (2~{R},5~{R},7~{R})-14-[5-[(3~{S),4~{R})-3-amino-4-methoxy-piperidine-1-carbonyl]-7-methoxy-1-methyl-benzimidazol-2-yl]-2,5-dimethyl-3,13,19-triazatetracyclo[11.5.2.0^ {5,7}.0^{16,20}]icosa-1(19), 14,16(20),17-tetraen-4-one]",69
3,"COc1cc(C(=O)N2[C@H]3CC[C@@H]2[C@H](N)[C@H](OC)C3)cc2nc(-c3cc4ccc5nc4n3CCCCC[C@@H]3C[C@H]3C(=O)N[C@@H]5C)n(C)c12 [Example 584, (2~{R},5~{R},7~{R})-14-[5-[(1~{R},2~{S},3~ {R},5~{S})-2-amino-3-methoxy-8-azabicyclo[3.2.1]octane-8-carbonyl]-7-methoxy-1-methyl-benzimidazol-2-yl]-2-methyl-3,13,19-triazatetracyclo [11.5.2.0^{5,7}.0^{16,20}] icosa-1(19),14,16(20), 17-tetraen-4-one]",51
4,"COc1cc(C(=O)N2CC[C@@H](OC)[C@@H](N)C2)cc2nc(-c3cc4ccc5nc4n3CC(F)(F)CCC[C@@H]3C[C@@]3(C)C(=O)N[C@@H]5C)n(C)c12 [Example 585, (2~{R},5~{R},7~{R})-14-[5-[(3~{S},4~{R})-3-amino-4-methoxy-piperidine-1-carbonyl]-7-methoxy-1-methyl-benzimidazol-2-yl]-11,11-difluoro-2,5-dimethyl-3,13,19-triazatetracyclo[11.5.2.0^ {5,7}.0^{16,20}]icosa-1(19),14,16(20),17-tetraen-4-one]",74
5,"COc1cc(C(=O)N2CC[C@@H](OC)[C@@H](N)C2)cc2nc(-c3cc4ccc5nc4n3CCCCCC[C@@H]3C[C@H]3C(=O)N[C@@H]5C)n(C)c12 [Example 586, (2~{R},5~{R},7~{R})-15-[5-(3~{S),4~{R})-3-[amino-4-methoxy-piperidine-1-carbonyl]-7-methoxy-1-methyl-benzimidazol-2-yl]-2-methyl-3,14,20-triazatetracyclo[12.5.2.0^ {5,7}.0^{17,21}] henicosa-1(20),15,17(21), 18-tetraen-4-one]",88
6,"COc1cc(C(=O)N2CC[C@@H](OC)[C@@H](N)C2)cc2nc(-c3cc4ccc5nc4n3CC(F)(F)CCCC(C)(C)C(=O)N[C@@H]5C)n(C)c12 [Example 587, (10~{R})-16-[5-[(3~{S},4~ {R})-3-amino-4-methoxy-piperidine-1-carbonyl]-7-methoxy-1-methyl-benzimidazol-2-yl]-3,3-difluoro-7,7,10-trimethyl-1,9,18-triazatricyclo[9.5.2.0^ {14,17}]octadeca-11(18),12,14(17), 15-tetraen-8-one]",163
7,"COc1cc(C(=O)N2CC[C@@H](OC)[C@@H](N)C2)cc2nc(-c3cc4ccc5nc4n3CC(F)(F)CCCOC(C)(C)C(=O)N[C@@H]5C)n(C)c12 [Example 588, (11~{R})-17-[5-[(3~{S},4~ {R})-3-amino-4-methoxy-piperidine-1-carbonyl]-7-methoxy-1-methyl-benzimidazol-2-yl]-3,3-difluoro-8,8,11-trimethyl-7-oxa-1,10,19-triazatricyclo[10.5.2.0^ {15,18}]nonadeca-12(19),13,15(18), 16-tetraen-9-one]",193
